From ChEMBL document CHEMBL1201862, “PubChem BioAssay data set” (2004)
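All cell lines were grown in 96-well plates and treated with compound for 48 hours. The concentration for 50% growth inhibition is given as GI50.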 Activity calls are given as the source filed them. Cut-off read from the data, not from the text of the source: active = GI50 up to about 1.1 µM and inactive = higher.

How the values were obtained:
Assay in all cases: NCI anticancer screen, dose series, 48 h
Malme-3M = test system: Malme-3M
A498 = test system: A498
OVCAR-5 = test system: OVCAR-5
TK-10 = test system: TK-10
SK-MEL-28 = test system: SK-MEL-28
SN12C = test system: SN12C
IGROV-1 = test system: IGROV-1
NCI-H23 = test system: NCI-H23
SF-295 = test system: SF-295
HL-60 = test system: HL-60
UO-31 = test system: UO-31
NCI-H522 = test system: NCI-H522
NCI-H226 = test system: NCI-H226
SW-620 = test system: SW-620
DMS-273 = test system: DMS-273
786-0 = test system: 786-0
SK-MEL-5 = test system: SK-MEL-5
HOP-92 = test system: HOP-92

| Compound | GI50 (Malme-3M) | GI50 (A498) | GI50 (OVCAR-5) | GI50 (TK-10) | GI50 (SK-MEL-28) | GI50 (SN12C) | GI50 (IGROV-1) | GI50 (NCI-H23) | GI50 (SF-295) | GI50 (HL-60) | GI50 (UO-31) | GI50 (NCI-H522) | GI50 (NCI-H226) | GI50 (SW-620) | GI50 (DMS-273) | GI50 (786-0) | GI50 (SK-MEL-5) | GI50 (HOP-92) |
| --- | --- | --- | --- | --- | --- | --- | --- | --- | --- | --- | --- | --- | --- | --- | --- | --- | --- | --- |
| CCc1ccccc1NC(=O)/C(CC(=O)c1c(C)[n+]([O-])c2ccccc2[n+]1[O-])=N\NS(=O)(=O)c1ccc(C)cc1 | 57.4 µM (inactive) | > 100 µM (inactive) | > 100 µM (inactive) | > 100 µM (inactive) | 47.9 µM (inactive) | 28.8 µM (inactive) | 26.5 µM (inactive) | 35.2 µM (inactive) | > 100 µM (inactive) | 15.8 µM (inactive) | > 100 µM (inactive) | 16.1 µM (inactive) | > 100 µM (inactive) | 25.9 µM (inactive) | 35.4 µM (inactive) | 87.5 µM (inactive) | – | – |
| COCC(O)CN1C(N)=NC(O)C1O (stereo not given) | > 100 µM (inactive) | – | > 100 µM (inactive) | > 100 µM (inactive) | > 100 µM (inactive) | > 100 µM (inactive) | – | > 100 µM (inactive) | > 100 µM (inactive) | > 100 µM (inactive) | > 100 µM (inactive) | > 100 µM (inactive) | > 100 µM (inactive) | > 100 µM (inactive) | > 10 µM (inactive) | > 100 µM (inactive) | > 100 µM (inactive) | > 100 µM (inactive) |
| CCCCN1C(=O)C2c3[nH]c4ccccc4c3C3CCCCC3C2C1=O.CCCCN1C(=O)C2c3[nH]c4ccccc4c3[C@@H]3CCCCC3C2C1=O (stereo not given) | – | – | – | 13.7 µM (inactive) | 29.6 µM (inactive) | 35.9 µM (inactive) | 19.1 µM (inactive) | 16 µM (inactive) | 7.93 µM (inactive) | 13.6 µM (inactive) | 14.8 µM (inactive) | – | – | 37.8 µM (inactive) | 10.3 µM (inactive) | 4.41 µM (inactive) | 23.6 µM (inactive) | – |
| CC(=O)OC(=O)O/C=C\CCl | > 100 µM (inactive) | > 100 µM (inactive) | – | > 100 µM (inactive) | > 100 µM (inactive) | > 100 µM (inactive) | > 100 µM (inactive) | – | – | 29.4 µM (inactive) | > 100 µM (inactive) | 13.7 µM (inactive) | > 100 µM (inactive) | > 100 µM (inactive) | 62.8 µM (inactive) | > 100 µM (inactive) | > 100 µM (inactive) | – |
| COc1ccc(C2ON(c3ccccc3)CC=C2C)cc1 (stereo not given) | > 100 µM (inactive) | – | 34 µM (inactive) | > 100 µM (inactive) | 61.8 µM (inactive) | > 100 µM (inactive) | > 100 µM (inactive) | 52.7 µM (inactive) | 93.8 µM (inactive) | 34.6 µM (inactive) | 34 µM (inactive) | 19.2 µM (inactive) | > 100 µM (inactive) | > 100 µM (inactive) | 64.7 µM (inactive) | > 100 µM (inactive) | – | – |
| C[n+]1cccc(NC(=O)c2ccc(NC(=O)C34CCC(C(=O)Nc5ccc(C(=O)Nc6ccc[n+](C)c6)cc5)(CC3)CC4)cc2)c1 | – | 18 µM (inactive) | > 100 µM (inactive) | – | 42.2 µM (inactive) | 3.23 µM (inactive) | 13.5 µM (inactive) | 56.5 µM (inactive) | 19.7 µM (inactive) | 1.87 µM (inactive) | – | 5.42 µM (inactive) | > 100 µM (inactive) | 70.1 µM (inactive) | 6.82 µM (inactive) | 3.7 µM (inactive) | 33.2 µM (inactive) | > 100 µM (inactive) |
| COc1ccc2oc(-c3cc4cc(OC)ccc4o3)cc2c1 | > 100 µM (inactive) | – | > 100 µM (inactive) | > 100 µM (inactive) | > 100 µM (inactive) | > 100 µM (inactive) | > 100 µM (inactive) | > 100 µM (inactive) | > 100 µM (inactive) | > 100 µM (inactive) | > 100 µM (inactive) | > 100 µM (inactive) | – | > 100 µM (inactive) | > 100 µM (inactive) | > 100 µM (inactive) | > 100 µM (inactive) | > 100 µM (inactive) |
| O=C1OC(c2ccccc2)C2CC3CC4(CCC3CN12)OCCO4 (stereo not given) | – | > 100 µM (inactive) | > 100 µM (inactive) | > 100 µM (inactive) | > 100 µM (inactive) | > 100 µM (inactive) | > 100 µM (inactive) | 36.9 µM (inactive) | > 100 µM (inactive) | 67.8 µM (inactive) | > 100 µM (inactive) | 0.142 µM (active) | > 100 µM (inactive) | > 100 µM (inactive) | > 100 µM (inactive) | > 100 µM (inactive) | 17.9 µM (inactive) | 80 µM (inactive) |
| O=c1cccccc1NCCCNc1cccccc1=O | 11.9 µM (inactive) | – | > 100 µM (inactive) | – | – | 15.9 µM (inactive) | > 100 µM (inactive) | > 100 µM (inactive) | > 100 µM (inactive) | 43.2 µM (inactive) | > 100 µM (inactive) | > 100 µM (inactive) | > 100 µM (inactive) | > 100 µM (inactive) | > 100 µM (inactive) | > 100 µM (inactive) | – | > 100 µM (inactive) |
